According to PubChem BioAssay AID330 (DTP/NCI, 2004):
“And” between values parts separate entries of the source, which are not always exact repeats. Identical values can stand only once. Toxic doses and inconclusive results are not listed.

Test system: P388 leukemia ip, CD2F1 mice, survival T/C
Test: NCI In Vivo Anticancer Drug Screen. Data for tumor model P388 Leukemia (intraperitoneal) in CD2F1 (CDF1) mice
Conditions: endpoint: median survival time, higher = longer survival
Outline: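 Mice carrying the transplanted tumor received test compound or vehicle. Survival was recorded in each group, and the value is the treated-group measurement divided by that of the vehicle-treated control group.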

[1] = dose: 100.0 mg/kg/injection, schedule: Q01DX009 (ip), vehicle: saline with Tween-80
[2] = dose: 200.0 mg/kg/injection, schedule: Q01DX009 (ip), vehicle: saline with Tween-80

With COc1c2c(c(N3CCCC3)c3c1C(=O)c1ccccc1C3=O)C(=O)CCC2 the T/C (dose: 100.0 mg/kg/injection, schedule: Q01DX001 (ip), vehicle: saline with Tween-80) was 100 % of control, the T/C (dose: 200.0 mg/kg/injection, schedule: Q01DX001 (ip), vehicle: saline with Tween-80) was 105 % of control and the T/C (dose: 400.0 mg/kg/injection, schedule: Q01DX001 (ip), vehicle: saline with Tween-80) was 94 % of control.

With CCCCCCCC[As](CCCCCCCC)SC1OC(COC(C)=O)C(OC(C)=O)C(OC(C)=O)C1OC(C)=O (stereo unspecified) the T/C (dose: 50.0 mg/kg/injection, schedule: Q01DX009 (ip), vehicle: Klucel (hydroxypropylcellulose) (HPC)) was 102 % of control and the T/C (dose: 100.0 mg/kg/injection, schedule: Q01DX009 (ip), vehicle: Klucel (hydroxypropylcellulose) (HPC)) was 90 % of control.

O=C1OCCOCCOCCOCCOC(=O)c2cccc1n2 was tested, and the T/C (dose: 100.0 mg/kg/injection, schedule: Q04DX003 (ip), vehicle: Klucel (hydroxypropylcellulose) (HPC)) was 105 % of control, the T/C (dose: 200.0 mg/kg/injection, schedule: Q04DX003 (ip), vehicle: Klucel (hydroxypropylcellulose) (HPC)) was 104 % of control and the T/C (dose: 400.0 mg/kg/injection, schedule: Q04DX003 (ip), vehicle: Klucel (hydroxypropylcellulose) (HPC)) was 102 % of control.

In the case of Cc1ncoc1C(=O)Nc1ccc([N+](=O)[O-])cc1[N+](=O)[O-], the T/C (dose: 100.0 mg/kg/injection, schedule: Q04DX002 (ip), vehicle: Klucel (hydroxypropylcellulose) (HPC)) was 103 % of control, the T/C (dose: 200.0 mg/kg/injection, schedule: Q04DX002 (ip), vehicle: Klucel (hydroxypropylcellulose) (HPC)) was 100 % of control and the T/C (dose: 400.0 mg/kg/injection, schedule: Q04DX002 (ip), vehicle: Klucel (hydroxypropylcellulose) (HPC)) was 105 % of control.

In the case of COC(=O)C(N)C(C)O (stereo unspecified), the T/C (dose: 12.5 mg/kg/injection, schedule: Q01DX009 (ip), vehicle: water) was 97 % of control, the T/C (dose: 25.0 mg/kg/injection, schedule: Q01DX009 (ip), vehicle: water) was 101 % of control and the T/C (dose: 50.0 mg/kg/injection, schedule: Q01DX009 (ip), vehicle: water) was 89 % of control. The T/C (dose: 100.0 mg/kg/injection, schedule: Q01DX009 (ip), vehicle: water) was 102 % of control and the T/C (dose: 200.0 mg/kg/injection, schedule: Q01DX009 (ip), vehicle: water) was 102 % of control.

CCCCOP(=O)(Nc1ccccc1)OCCCC was tested, and the T/C [1] was 110 % of control, the T/C [2] was 112 % of control and the T/C (dose: 400.0 mg/kg/injection, schedule: Q01DX009 (ip), vehicle: saline with Tween-80) was 110 % of control.

For COc1cc2c(cc1C(C)c1ccc(OCc3ccccc3)cc1)OCO2 (stereo unspecified), the T/C (dose: 25.0 mg/kg/injection, schedule: Q01DX005 (ip), vehicle: distilled water + Tween-80) was 99 % of control, the T/C (dose: 50.0 mg/kg/injection, schedule: Q01DX005 (ip), vehicle: distilled water + Tween-80) was 98 % of control and the T/C (dose: 100.0 mg/kg/injection, schedule: Q01DX005 (ip), vehicle: distilled water + Tween-80) was 90 % of control and 94 % of control. For the same molecule, the T/C (dose: 200.0 mg/kg/injection, schedule: Q01DX005 (ip), vehicle: distilled water + Tween-80) was 90 % of control and 91 % of control.

For O=S(CCCl)c1ccccc1 (stereo unspecified), the T/C (dose: 25.0 mg/kg/injection, schedule: Q01DX009 (ip), vehicle: saline with Tween-80) was 96 % of control, the T/C (dose: 50.0 mg/kg/injection, schedule: Q01DX009 (ip), vehicle: saline with Tween-80) was 97 % of control and the T/C [1] was 101 % of control. The T/C [2] was 90 % of control.

In the case of CC1OC1C(=O)C1(O)C(C)C(O)C23OC2(C(O)c2c(O)cccc2C3=O)C1O (stereo unspecified), the T/C (dose: 1.0 mg/kg/injection, schedule: Q01DX009 (ip), vehicle: Klucel (hydroxypropylcellulose) (HPC)) was 104 % of control and 118 % of control, the T/C (dose: 2.0 mg/kg/injection, schedule: Q01DX009 (ip), vehicle: Klucel (hydroxypropylcellulose) (HPC)) was 154 % of control and the T/C (dose: 4.0 mg/kg/injection, schedule: Q01DX009 (ip), vehicle: Klucel (hydroxypropylcellulose) (HPC)) was 121 % of control.

With CN(C)C1=CC(N(C)C)=NC12C(=N)N(C)C(=O)N(C)C2=O (stereo unspecified) the T/C (dose: 50.0 mg/kg/injection, schedule: Q01DX005 (ip), vehicle: water) was 104 % of control, the T/C (dose: 100.0 mg/kg/injection, schedule: Q01DX005 (ip), vehicle: water) was 104 % of control and the T/C (dose: 200.0 mg/kg/injection, schedule: Q01DX005 (ip), vehicle: water) was 108 % of control.

In the case of CC1(C)OC(=O)N=C1c1ccc(Cl)cc1, the T/C (dose: 60.0 mg/kg/injection, schedule: Q01DX005 (ip), vehicle: Klucel (hydroxypropylcellulose) (HPC)) was 107 % of control and the T/C (dose: 120.0 mg/kg/injection, schedule: Q01DX005 (ip), vehicle: Klucel (hydroxypropylcellulose) (HPC)) was 101 % of control.

For O=C1C=C(N2CCOCC2)C(=O)C=C1N1CCOCC1, the T/C (dose: 50.0 mg/kg/injection, schedule: Q01DX005 (ip), vehicle: Klucel (hydroxypropylcellulose) (HPC)) was 90 % of control, the T/C (dose: 100.0 mg/kg/injection, schedule: Q01DX005 (ip), vehicle: Klucel (hydroxypropylcellulose) (HPC)) was 98 % of control and the T/C (dose: 200.0 mg/kg/injection, schedule: Q01DX005 (ip), vehicle: Klucel (hydroxypropylcellulose) (HPC)) was 92 % of control.

With CC(=O)c1c(-c2ccccc2)noc1-c1ccccc1 the T/C (dose: 100.0 mg/kg/injection, schedule: Q04DX003 (ip), vehicle: saline) was 102 % of control, the T/C (dose: 200.0 mg/kg/injection, schedule: Q04DX003 (ip), vehicle: saline) was 102 % of control and the T/C (dose: 400.0 mg/kg/injection, schedule: Q04DX003 (ip), vehicle: saline) was 101 % of control.
